The values below come from PubChem BioAssay (NCI).

Test systems include LOX IMVI melanoma; MDA-MB-435; U251 CNS; TK-10 renal; SNB-19 CNS; MDA-MB-231 breast; RPMI-8226 leukemia; SK-MEL-5 melanoma; SK-MEL-2 melanoma; DU-145 prostate.
Common to all, as to test: inhibition of tumour cell growth, NCI panel, 48 h

Several values for one entry are separate records, joined by “and”; a condition that tells them apart may be missing. Equal values may be shown once.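 A five-concentration, 48-hour dose response in 96-well plates underlies each endpoint, interpolated linearly between surrounding concentrations. The concentration for 50% growth inhibition is given as GI50. TGI denotes the concentration required for complete inhibition of growth.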 A value given as a limit tells only on which side of the number the result lay.

Turning to `O=C1c2ccn(CCCCN3CCOCC3)c2C(=O)c2c1c(O)c1ccccc1c2O`, the GI50 in the assay on LOX IMVI melanoma is 3.58 µM; in the assay on MDA-MB-435, 2.13 µM; with U251 CNS it was 10.9 µM; in the assay on TK-10 renal, 1.56 µM; with SNB-19 CNS, 19.6 µM; in the assay on MDA-MB-231 breast it was 12.7 µM. Further, the GI50 with RPMI-8226 leukemia is 3.53 µM. The TGI in the assay with LOX IMVI melanoma amounted to 23.1 µM; in the assay on MDA-MB-435, 4.62 µM; in the assay on U251 CNS it was 31.8 µM; in the assay with TK-10 renal it was 7.7 µM; with SNB-19 CNS, 60.4 µM; with MDA-MB-231 breast it was 32.4 µM. This compound also had a TGI in the assay on RPMI-8226 leukemia of over 100 µM.
`COc1cc2c(cc1OC)C13CCN4CC5=CCOC(CC(=O)O)C(C5CC41)C3N2` (stereo not given): the TGI with SK-MEL-5 melanoma, in the assay with LOX IMVI melanoma, in the assay with MDA-MB-435, in the assay with SK-MEL-2 melanoma, in the assay on U251 CNS and in the assay with TK-10 renal was over 100 µM in each case. Also, the TGI in the assay on SNB-19 CNS, with MDA-MB-231 breast and with RPMI-8226 leukemia was over 100 µM in each case.
Take `OCCN1CCN(CCCN2c3ccccc3Sc3ccc(C(F)(F)F)cc32)CC1`: the GI50 in the assay with SK-MEL-5 melanoma is 0.764 µM and 3.02 µM and 1.98 µM; with LOX IMVI melanoma, 0.898 µM and 5.18 µM and 3.4 µM; with MDA-MB-435, 1.14 µM and 3.54 µM and 2.44 µM; in the assay with U251 CNS, 1.45 µM and 5.19 µM and 3.66 µM; in the assay with TK-10 renal, 1.48 µM and 8.22 µM and 6.59 µM; with SNB-19 CNS, 2.08 µM and 14 µM and 12.3 µM. The GI50 in the assay with MDA-MB-231 breast is 1.2 µM and 8.87 µM and 5.68 µM; in the assay on RPMI-8226 leukemia, 1.54 µM; in the assay on DU-145 prostate, 6.29 µM and 12.9 µM. Further, the TGI in the assay on SK-MEL-5 melanoma is 1.43 µM and 11 µM and 4.8 µM; with LOX IMVI melanoma, 2 µM and 18.2 µM and 12.7 µM; with MDA-MB-435 it was 3 µM and 14 µM and 7.42 µM; with U251 CNS, 5.44 µM and 18.4 µM and 14.5 µM; in the assay on TK-10 renal, 4.28 µM and 21.3 µM and 20.1 µM; with SNB-19 CNS it was 8.34 µM and 30.8 µM and 27.3 µM. Further, the TGI with MDA-MB-231 breast was 5.07 µM and 22.8 µM and 18.1 µM; in the assay on RPMI-8226 leukemia, 4.69 µM; in the assay with DU-145 prostate it was 12.7 µM and 25.7 µM.
For the compound `CN(C)c1c(Cl)c(=O)oc2c1ccc1nc(-c3ccccc3)sc12`, the TGI with SK-MEL-5 melanoma, with LOX IMVI melanoma, with MDA-MB-435, in the assay on U251 CNS, in the assay with TK-10 renal and with SNB-19 CNS was over 100 µM throughout. Further, the TGI in the assay on MDA-MB-231 breast, in the assay on RPMI-8226 leukemia and in the assay with DU-145 prostate was over 100 µM in each case.
For the compound `CCOC(C)OCC#CCCBr` (stereo not given), the TGI in the assay on SK-MEL-5 melanoma, in the assay with LOX IMVI melanoma, with SK-MEL-2 melanoma, in the assay with U251 CNS, with TK-10 renal and in the assay on SNB-19 CNS was over 100 µM in each case. This compound displayed a TGI with RPMI-8226 leukemia of over 100 µM.
Regarding `Nc1ccccc1C#C/C=C\C#Cc1ccc(F)cc1F`, the GI50 in the assay with SK-MEL-5 melanoma is 9.69 µM; with LOX IMVI melanoma, 6.41 µM; in the assay with MDA-MB-435, 2.38 µM; in the assay on SK-MEL-2 melanoma, 23 µM; with U251 CNS it was 13.7 µM; with TK-10 renal, 11.2 µM. Besides, the GI50 with MDA-MB-231 breast is 15.1 µM; with RPMI-8226 leukemia, 1.36 µM; in the assay on DU-145 prostate, 12.5 µM. The TGI with SK-MEL-5 melanoma stood at 25.3 µM; in the assay on LOX IMVI melanoma, 19.9 µM; in the assay with MDA-MB-435, 6.19 µM; in the assay on SK-MEL-2 melanoma it was 58.1 µM; with U251 CNS, 26.5 µM; with TK-10 renal, 30.4 µM. In addition, the TGI in the assay with MDA-MB-231 breast turned out to be 33.3 µM; in the assay on RPMI-8226 leukemia, 34.3 µM; in the assay on DU-145 prostate it was 33.8 µM.
Consider `C=C1C(=O)O[C@@H]2C[C@]3(C)[C@@H](C[C@H]12)[C@](C)(O)CC[C@@H]3O`, for which the TGI in the assay on SK-MEL-5 melanoma is over 100 µM; with LOX IMVI melanoma it was over 100 µM; in the assay on SK-MEL-2 melanoma, over 100 µM; with U251 CNS, over 100 µM; in the assay on TK-10 renal it was 76.6 µM; in the assay on SNB-19 CNS, over 100 µM. The compound also registered a TGI in the assay on RPMI-8226 leukemia of over 100 µM.
Take `O=[N+]([O-])c1ccccc1S(=O)c1ccccc1` (stereo not given): the TGI in the assay on SK-MEL-5 melanoma, in the assay on LOX IMVI melanoma, in the assay with SK-MEL-2 melanoma, in the assay with U251 CNS, in the assay on TK-10 renal and in the assay on SNB-19 CNS was over 100 µM throughout. This compound also registered a TGI in the assay with RPMI-8226 leukemia of over 100 µM.
Regarding `O=C(NO)c1ccc(C(=O)NO)cc1`, the TGI was over 100 µM in the assay on SK-MEL-5 melanoma; over 100 µM in the assay with LOX IMVI melanoma; over 100 µM in the assay on MDA-MB-435; 35.7 µM in the assay on U251 CNS; over 100 µM with TK-10 renal; over 100 µM in the assay with SNB-19 CNS. Besides, the TGI in the assay with MDA-MB-231 breast, with RPMI-8226 leukemia and in the assay on DU-145 prostate was over 100 µM each time.
As for `O=CC1=CCCC2(C1)OCCO2`, the TGI in the assay on SK-MEL-5 melanoma, in the assay on LOX IMVI melanoma, in the assay on SK-MEL-2 melanoma, with U251 CNS, in the assay with TK-10 renal and in the assay on SNB-19 CNS was over 100 µM each time. In addition, in the assay on RPMI-8226 leukemia, the TGI was over 100 µM.
